Measurements published in PubChem BioAssay AID787 (PCMD, 2007).
Active and inactive are the calls of the source. No rule for the calls is given here.

Biological target: Complement C1s subcomponent (Homo sapiens) (UniProt P09871)
Assay: C1s inhibitor IC50 values, dose response, biochemical (AID 787)
Conditions: purified C1s enzyme, fluorogenic substrate, FU read-out

Complement C1s subcomponent (Homo sapiens), sequence (P09871 16-437 limits assumed): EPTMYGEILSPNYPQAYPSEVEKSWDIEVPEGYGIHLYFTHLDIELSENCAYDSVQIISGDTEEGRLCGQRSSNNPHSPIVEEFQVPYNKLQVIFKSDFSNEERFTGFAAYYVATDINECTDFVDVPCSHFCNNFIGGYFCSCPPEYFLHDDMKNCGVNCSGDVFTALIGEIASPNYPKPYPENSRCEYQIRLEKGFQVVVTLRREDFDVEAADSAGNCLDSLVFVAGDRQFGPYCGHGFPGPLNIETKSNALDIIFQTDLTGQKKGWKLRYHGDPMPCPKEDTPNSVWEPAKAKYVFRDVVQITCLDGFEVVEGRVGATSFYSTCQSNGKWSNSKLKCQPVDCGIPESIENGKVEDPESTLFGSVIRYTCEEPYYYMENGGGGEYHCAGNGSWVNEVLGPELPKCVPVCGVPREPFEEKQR
Complement C1s subcomponent (Homo sapiens), sequence (P09871 438-688 limits assumed): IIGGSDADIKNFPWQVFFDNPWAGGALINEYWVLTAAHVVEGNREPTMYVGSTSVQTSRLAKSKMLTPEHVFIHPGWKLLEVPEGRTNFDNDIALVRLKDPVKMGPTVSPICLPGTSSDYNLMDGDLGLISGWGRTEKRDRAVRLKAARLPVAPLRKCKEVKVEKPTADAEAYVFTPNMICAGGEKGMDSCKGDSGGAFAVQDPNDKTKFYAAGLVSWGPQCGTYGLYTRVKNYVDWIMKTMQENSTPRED

IC50 | SMILES
> 50 µM (inactive) | O=C1CCCC2=C1C1(CCCCC1)N=C(Nc1nc3ccccc3o1)N2
> 50 µM (inactive) | COc1cccc(C2=CC(c3cccc(OC)c3OC)n3nnnc3N2)c1 (centres undefined)
> 50 µM (inactive) | CCOC(=O)N1CC=C2C(C#N)=C(N)C(C#N)(C#N)[C@H](c3ccccc3OCC)[C@H]2C1
> 50 µM (inactive) | O=C1CCCC(O)=C1C=NCCc1ccccc1
> 50 µM (inactive) | CCOc1ccc(N2C(=O)CC(N3CCN(c4ccccc4F)CC3)C2=O)cc1 (centres undefined)
> 50 µM (inactive) | COc1ccc(NC(=O)CSC2=C(C#N)C(c3ccco3)C3=C(CCCC3=O)N2)c(OC)c1 (centres undefined)
> 50 µM (inactive) | Cc1cccc(COc2ccc(/C(O)=C3\C(=O)C(=O)N(CCN(C)C)C3c3ccncc3)cc2)c1 (centres undefined)
> 50 µM (inactive) | O=C(Oc1ccc(Cl)cc1N1C(=O)CCC1=O)c1ccco1
> 50 µM (inactive) | COC(=O)Cc1[nH]nc2c1C1(C(=O)N(Cc3ccccc3)c3ccccc31)C(C#N)=C(N)O2 (centres undefined)
